Laboratory results: a melting point compilation (Tetko et al.; mined from patent text by program, amines drawn as free bases though some values may be those of a salt)

Compared with `Cc1nc(-c2ccc(N3CCOCC3)cc2)sc1-c1ccnc(Nc2ccc(N3CCOCC3)cc2)n1`, `CCc1nc2c(N)nc3ccc(OCc4ccccc4)cc3c2n1CCCCNC(=O)N1CCOCC1` is lower in melting point: 273 to 274 °C for the first, 190 to 191 °C for the second.

Compared with `Cc1cc(CNC(=O)c2nc3n(c(=O)c2O)CCN3C)ccc1F`, `Cc1nc(-n2cnn(Cc3ccc(F)cc3)c2=O)sc1C(=O)NCc1cccnc1` is lower in melting point: 187 to 189 °C for the first, 178 to 179 °C for the second.

First: CCCN1C(=O)C(=O)c2cc(SCCCc3ccc(C(=O)O)cc3)ccc21
Second: O=C(O)c1ccc(C(=O)NS(=O)(=O)c2ccccc2)cc1
The melting point of the first is lower: 140 to 142 °C for the first, 259 to 261 °C for the second.

Compared with `CC(=O)c1cc2sc(C)c(N(C)S(=O)(=O)c3cccs3)c2[nH]1`, `CCOC(=O)CCCOc1cccc2cc(C(C)=O)oc12` is lower in melting point: 220 °C for the first, 47.1 to 48.4 °C for the second.

First: O=C(O)CNC(=O)c1ccc([N+](=O)[O-])cc1F
Second: CCN(CC(F)(F)F)c1cccc([N+](=O)[O-])c1
The melting point of the first is higher: 156 to 158 °C for the first, 66 °C for the second.

First: c1ccc(OCNc2ccncc2)cc1
Second: O=Cc1cc(Cl)ccc1OCCc1ccccc1
The melting point of the first is higher: 159 to 160 °C for the first, 73 to 74 °C for the second.

First: O=Cc1ccc2cc3ccccc3cc2c1
Second: COC(=O)c1cccc2[nH]c3cc4ccccc4c(OC)c3c12
The melting point of the first is higher: 201 to 202 °C for the first, 190 to 196 °C for the second.

Compared with `Nc1ccc2c(c1)C(=O)CCO2`, `O=S(=O)(c1ccc(F)cc1)N1CCOCC1` is lower in melting point: 136 to 137 °C for the first, 106 to 107 °C for the second.

Compared with `COc1ccc(C(=O)n2cccc2Br)c(OC)c1`, `CCc1c(Cc2ccccc2)c2ccc(OC)cc2n1CC(=O)NN` is higher in melting point: 81 to 82 °C for the first, 164 to 166 °C for the second.

First: C/C(=C\COc1ccc(Cl)cc1Cl)C(=O)O
Second: COC(=O)c1nc(Br)cc(Br)c1OCc1ccccc1
The melting point of the first is higher: 117 to 122 °C for the first, 75 to 76 °C for the second.

Compared with `COCCNC(=O)c1cccc(-c2cccc3c(C)c(Cc4cc(F)cc(Cl)c4)sc23)c1`, `CCCCNC(=O)c1cc(=O)c(Oc2ccccc2)co1` is higher in melting point: 132 to 133 °C for the first, 149 to 151 °C for the second.

Compared with `CC(Oc1ccc(Oc2ncc(C(F)(F)F)cc2Cl)cc1)C(=O)Nc1ccc(C(F)(F)F)cc1` (stereo unspecified), `COc1ccccc1C(=O)Nc1ccc(Cl)c(C(=O)OC(C)C)c1` is lower in melting point: 140 to 143 °C for the first, 94 to 96 °C for the second.

First: CCN1C(=O)CN=C(c2ccccc2F)c2cc(C(C)O)ccc21 (stereo unspecified)
Second: CC(C)Cc1nc(N)c(C(=O)c2c[nH]c3ccccc23)[nH]c1=O
The melting point of the first is lower: 48 to 50 °C for the first, 228 to 230 °C for the second.

First: CC(C)(C)OC(=O)[C@@H]1CCC(=O)N1
Second: CC1CC(C)CN(C(=O)C2Cc3ccccc3N2C(=O)OC(C)(C)C)C1 (stereo unspecified)
The melting point of the first is lower: 91 to 92 °C for the first, 148 to 149 °C for the second.

First: CCCc1nc(N)cc(OC)n1
Second: CCC(=O)c1ccccc1CS(=O)(=O)NC(=O)Nc1nc(OC)cc(OC)n1
The melting point of the first is lower: 97 to 99 °C for the first, 155 to 158 °C for the second.

First: Cc1cccc(-c2ccc(OS(=O)(=O)C(F)(F)F)cc2C=O)c1
Second: CCC(O)Cn1cc(-c2cccc(C(F)(F)F)c2)cn1 (stereo unspecified)
The melting point of the first is lower: 60 to 62 °C for the first, 77 to 79 °C for the second.

Compared with `O=C1c2cccc(NC(=S)Nc3cccc(Br)n3)c2C2CCCCN12` (stereo unspecified), `CS(=O)c1ccc(-c2cn3c(c2-c2ccccc2)CCC3)cc1` (stereo unspecified) is lower in melting point: 195 °C for the first, 67 to 68 °C for the second.

`COc1cc2c(cc1O)CC(C)(C)NC2` and `COc1cc2c(c3c1OC(C)(C)C3)C(c1cccc(OCC(N)=O)c1)=NC(C)(C)C2` cannot be ordered by melting point: 170 to 173 °C for the first, 172 to 174 °C for the second.

Compared with `CCCCCCC1C(=O)OC2OC3(C)CCC4C(C)CCC1C24OO3` (single isomer, unassigned; (+)), `COc1ccccc1C1(O)C(O)CC(C)(C)C2CN(C(=O)Cc3c[nH]c4ccccc34)CC21` (stereo unspecified) is higher in melting point: 80.5 to 82 °C for the first, 160 to 165 °C for the second.

Compared with `COC(=O)C[C@H](CC(=O)O[Si](C)(C)C(C)(C)C)O[Si](C)(C)C(C)(C)C`, `CCOC(=O)[C@H](CNC(=O)OC(C)(C)C)NS(=O)(=O)N(C)C` is higher in melting point: 44 to 46 °C for the first, 65 to 67 °C for the second.

First: OCC1OC(n2c(C(F)(F)F)nc3c(Cl)cc(Cl)cc32)C(O)C1O (stereo unspecified)
Second: Cc1c(NC(=O)c2ccc(-c3ccc(F)cc3)cc2)ccc2cc(CN3C(C)CCCC3C)cnc12 (stereo unspecified)
The melting point of the first is lower: 162 °C for the first, 167 to 168 °C for the second.

Compared with `c1cn2nc(N3CCNCC3)ccc2n1`, `Cc1cnc(I)c(OCc2ccccc2)c1` is lower in melting point: 122 to 123 °C for the first, 83 to 85 °C for the second.

First: COc1c(OCCC(NC(=O)OCc2ccccc2)C(=O)O)cc2c(c1OC)C1=C(CCC1)C(=NNC1=CCNCN1)CC2 (racemic)
Second: CN1C(=O)C(c2cc[nH]c2)(c2cccc(OCc3ccccc3)c2)N=C1N (stereo unspecified)
The melting point of the first is higher: 172 °C for the first, 98 to 100 °C for the second.

Compared with `COc1ccc2c(c1)cc(-c1nnn(Cc3cccc(OCc4ccc5ccccc5n4)c3)n1)c(=O)n2CCCCl`, `CCCCCCCCCCOc1ccc(-c2ccc(OCc3ccccc3)c(F)c2)cc1F` is lower in melting point: 150 to 152 °C for the first, 95.8 to 98.6 °C for the second.

Compared with `C/C=C/c1nnc(N2N=C(c3ccc([N+](=O)[O-])c(C)c3)c3cc4c(cc3C[C@H]2C)OCO4)s1`, `CC(C)(C)OC(=O)N[C@@H](Cc1ccccc1)C(=O)C=[N+]=[N-]` is lower in melting point: 232 to 237 °C for the first, 87 to 90 °C for the second.

Work on `O=C(O)C(Cc1cccnc1)C(=O)O` yielded a melting point of 128 to 129 °C.
